Structures are written as SMILES. In brackets after ≈: the same amount, converted by molar mass.

Data on 13 molecules can be found in ChEMBL document CHEMBL1133986, “Design and synthesis of new potent human cytomegalovirus (HCMV) inhibitors based on internally hydrogen-bonded 1,6-naphthyridines” (Bioorg Med Chem Lett, 2001).

In assay [1] the test system is Hs68. Nature of the assay: Inhibitory activity against Human cytomegalovirus (HCMV) in Hs 68 cell line determined by plaque reduction assay. The assay is classed as functional, cell-based. In general terms: Plaque reduction counts the foci of infection that form in a cell layer.
Assay [2] relates to Hs68. The experiment in a line: Cytotoxicity against the Hs 68 cell line. Type of assay: functional. The conditions noted are these: Homo sapiens.

With `CC(C)Oc1ccccc1CNC(=O)Nc1ccc2cnccc2n1`, the IC50 in the assay on Hs68 [1] was found to be 0.01 µg/mL (≈ 0.0297 µM). Besides, in the assay on Hs68 [2], it took 18.9 µg/mL (≈ 56.2 µM) to reach half-maximal cytotoxicity (CC50).
Taken in the same sequence, the figures for `COc1ccccc1C/N=C(\S)c1ccc2cnccc2n1` were 0.93 µg/mL (≈ 3.01 µM) and 8.1 µg/mL (≈ 26.2 µM).
On the same counts, the results for `CCOc1ccccc1C/N=C(\S)c1ccc2cnccc2n1` are 0.1 µg/mL (≈ 0.309 µM) and 4.6 µg/mL (≈ 14.2 µM).
Molecule `O=C(Nc1ccccc1)Nc1ccc2cnccc2n1` showed an IC50 with Hs68 [1] above 25 µg/mL. In addition, in the assay with Hs68 [2], the CC50 was above 100 µg/mL.
For `COc1ccccc1CNC(=O)Nc1ccc2cnccc2n1`, in the assay on Hs68 [1], the midpoint of inhibition, the IC50, lay at 1 µg/mL (≈ 3.24 µM). It took 13 µg/mL (≈ 42.2 µM) to reach half-maximal cytotoxicity in the assay on Hs68 [2] (CC50).
In turn, `CC(C)Oc1ccccc1NC(=O)Nc1ccc2cnccc2n1` displayed a concentration for half-maximal inhibition (IC50) in the assay on Hs68 [1] of 0.03 µg/mL (≈ 0.0931 µM). In the assay with Hs68 [2], it took 30.2 µg/mL (≈ 93.7 µM) to reach half-maximal cytotoxicity (CC50).
Molecule `COc1ccccc1NC(=O)Nc1ccc2cnccc2n1` registered a 50% inhibitory concentration (IC50) in the assay on Hs68 [1] of 1.2 µg/mL (≈ 4.08 µM). In the assay on Hs68 [2], this molecule registered a half-maximal cytotoxic concentration (CC50) of 33.9 µg/mL (≈ 115 µM).
On the same counts, the results for `CCOc1ccccc1NC(=O)Nc1ccc2cncc(Br)c2n1` are 0.46 µg/mL (≈ 1.19 µM) and 9.3 µg/mL (≈ 24 µM).
Molecule `CCOc1ccccc1NC(=O)Nc1nc2ccncc2cc1C#N` yielded a concentration for half-maximal inhibition (IC50) with Hs68 [1] above 25 µg/mL. The molecule also yielded a CC50 with Hs68 [2] below 25 µg/mL.
Taken in the same sequence, the figures for `O=C(NCc1ccccc1)Nc1ccc2cnccc2n1` were 0.29 µg/mL (≈ 1.04 µM) and 0.37 µg/mL (≈ 1.33 µM).
Taken in the same sequence, the figures for `CCOc1ccccc1NC(=O)Nc1ccc2cnccc2n1` were 0.14 µg/mL (≈ 0.454 µM) and 1.7 µg/mL (≈ 5.51 µM).
Taken in the same sequence, the figures for `CC(C)Oc1ccccc1C/N=C(\S)c1ccc2cnccc2n1` were 0.16 µg/mL (≈ 0.474 µM) and 11.1 µg/mL (≈ 32.9 µM).
In the assay with Hs68 [1], `CCOc1ccccc1NC(=O)Nc1nc2ccncc2cc1C` gave an IC50 above 25 µg/mL. Moreover, the CC50 in the assay with Hs68 [2] is above 100 µg/mL.

Broadly, the IC50 is the concentration that inhibits the measured activity by half. By CC50 is commonly meant the concentration that lowers cell viability or growth by half. Low readings indicate greater toxicity to the cells, high ones lower toxicity to the cells.
